The results in this text go back to PubChem BioAssay (NCI).

Test systems include 786-0 renal; ACHN renal; EKVX NSCLC; HCT-116 colon; HOP-62 NSCLC; HS 578T breast; HT29 colon; LOX IMVI melanoma; MCF7 breast; NCI-H23 lung; OVCAR-8 ovarian; RXF 393 renal; SK-MEL-2 melanoma; SK-MEL-28 melanoma; SK-MEL-5 melanoma; SN12C renal; SNB-19 CNS; SW-620 colon; UO-31 renal.
Assay in all cases: NCI anticancer screen, dose series, 48 h

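Where inhibition never reached the appropriate level, the endpoint shown equals the highest concentration tested. Otherwise, values were interpolated linearly from a five-concentration, 48-hour dose response in 96-well plates. TGI denotes the concentration required for complete inhibition of growth.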 Where only a bound is given, the exact number is not on record here.

As to `CNC(=O)c1n[nH]nc1Sc1c([N+](=O)[O-])ncn1C`, the TGI in the assay on 786-0 renal, in the assay with ACHN renal, in the assay with EKVX NSCLC, in the assay on HCT-116 colon, with HOP-62 NSCLC and in the assay on HS 578T breast was greater than 100 µM throughout. Besides, the TGI in the assay on HT29 colon, with LOX IMVI melanoma, in the assay on MCF7 breast, in the assay on NCI-H23 lung, in the assay on OVCAR-8 ovarian and with RXF 393 renal was greater than 100 µM in each case. Also, the TGI in the assay on SK-MEL-2 melanoma, with SK-MEL-28 melanoma, in the assay with SK-MEL-5 melanoma, in the assay with SN12C renal, in the assay on SNB-19 CNS and with SW-620 colon was greater than 100 µM throughout. This compound showed a TGI in the assay on UO-31 renal greater than 100 µM.

Regarding `C=CCN1C(=O)/C(=C/c2ccc(OC)cc2)NC1=S`, the TGI with 786-0 renal was greater than 100 µM; with ACHN renal, greater than 100 µM; in the assay on EKVX NSCLC it was 58.7 µM; in the assay with HCT-116 colon it was greater than 100 µM; in the assay with HOP-62 NSCLC it was greater than 100 µM; with HS 578T breast, greater than 100 µM. Further, the TGI in the assay with HT29 colon, with LOX IMVI melanoma, in the assay on MCF7 breast, with NCI-H23 lung, with OVCAR-8 ovarian and in the assay with RXF 393 renal was greater than 100 µM each time. Moreover, the TGI in the assay with SK-MEL-2 melanoma, with SK-MEL-28 melanoma, in the assay on SK-MEL-5 melanoma, in the assay with SN12C renal, with SNB-19 CNS and in the assay with SW-620 colon was greater than 100 µM in each case. In addition, the TGI with UO-31 renal is greater than 100 µM.

Take `Oc1cc(-c2ccccc2)cn2c1nc1ccccc12`: the TGI in the assay on 786-0 renal is greater than 79.7 µM; in the assay on ACHN renal, greater than 100 µM; with EKVX NSCLC, greater than 100 µM; with HCT-116 colon it was greater than 100 µM; in the assay with HOP-62 NSCLC, greater than 52.6 µM; with HS 578T breast, 47.7 µM. The TGI with HT29 colon was greater than 77.7 µM; with LOX IMVI melanoma it was greater than 100 µM; in the assay on MCF7 breast, greater than 100 µM; in the assay on NCI-H23 lung, greater than 100 µM; in the assay with OVCAR-8 ovarian it was greater than 54.3 µM; in the assay with RXF 393 renal it was greater than 100 µM. The TGI was greater than 100 µM in the assay on SK-MEL-2 melanoma; greater than 100 µM in the assay on SK-MEL-28 melanoma; 29.7 µM with SK-MEL-5 melanoma; greater than 100 µM in the assay on SN12C renal; greater than 100 µM in the assay on SNB-19 CNS; greater than 100 µM with SW-620 colon. The compound also registered a TGI in the assay on UO-31 renal greater than 32.8 µM.

Take `Cc1ccc(N=Nc2ccc(O)c(CN(C)C)c2)cc1C`: the TGI with 786-0 renal is greater than 100 µM; in the assay with ACHN renal, 60.1 µM; with EKVX NSCLC, 61.8 µM; in the assay on HCT-116 colon, greater than 100 µM; in the assay on HOP-62 NSCLC, 52.5 µM; in the assay on HS 578T breast, 56.2 µM. The TGI is 38.5 µM in the assay with HT29 colon; 76.2 µM with LOX IMVI melanoma; greater than 100 µM in the assay on MCF7 breast; greater than 100 µM with NCI-H23 lung; greater than 100 µM with OVCAR-8 ovarian; 57.8 µM with RXF 393 renal. Moreover, the TGI in the assay with SK-MEL-2 melanoma is 34.7 µM; in the assay with SK-MEL-28 melanoma, 44.7 µM; in the assay on SK-MEL-5 melanoma, 28.4 µM; in the assay with SN12C renal, greater than 100 µM; in the assay with SNB-19 CNS it was greater than 100 µM; in the assay with SW-620 colon, greater than 100 µM. In the assay on UO-31 renal, the TGI was 53.2 µM.

On to `COc1ccc(/C=C/C(=O)/C=C/c2ccc(OC)cc2)cc1`, for which the TGI in the assay with 786-0 renal was greater than 100 µM; in the assay on ACHN renal, greater than 100 µM; in the assay with EKVX NSCLC it was greater than 100 µM; in the assay with HCT-116 colon, 23.3 µM; in the assay with HOP-62 NSCLC, greater than 100 µM; in the assay with HS 578T breast it was greater than 100 µM. Further, the TGI is greater than 100 µM in the assay with HT29 colon; greater than 100 µM in the assay with LOX IMVI melanoma; greater than 100 µM in the assay with MCF7 breast; greater than 100 µM in the assay with NCI-H23 lung; 31.4 µM in the assay with OVCAR-8 ovarian; 36.6 µM with RXF 393 renal. The TGI in the assay on SK-MEL-2 melanoma was greater than 100 µM; in the assay on SK-MEL-28 melanoma it was greater than 100 µM; in the assay on SK-MEL-5 melanoma it was greater than 100 µM; in the assay on SN12C renal, greater than 100 µM; in the assay with SNB-19 CNS, greater than 100 µM; with SW-620 colon, 52.5 µM. The TGI in the assay on UO-31 renal is greater than 100 µM.

In the case of `Cc1nc2sc3ccccc3n2c(=O)c1N=Nc1ccc(Br)cc1`, the TGI with 786-0 renal, in the assay with ACHN renal, with EKVX NSCLC, in the assay with HCT-116 colon, in the assay with HOP-62 NSCLC and with HS 578T breast was greater than 100 µM each time. Also, the TGI with HT29 colon, with LOX IMVI melanoma, in the assay on MCF7 breast, with NCI-H23 lung, with OVCAR-8 ovarian and with RXF 393 renal was greater than 100 µM in each case. The TGI in the assay with SK-MEL-2 melanoma, in the assay with SK-MEL-28 melanoma, in the assay with SK-MEL-5 melanoma, with SN12C renal, in the assay with SNB-19 CNS and in the assay on SW-620 colon was greater than 100 µM in each case.

Take `Cc1c(C)c2c(c(N)c1C#N)C(=O)N(Nc1ccccc1)C2=O`: the TGI with 786-0 renal, in the assay on ACHN renal, in the assay with EKVX NSCLC, with HCT-116 colon, in the assay on HS 578T breast and with LOX IMVI melanoma was greater than 100 µM throughout. Besides, the TGI was greater than 100 µM in the assay with MCF7 breast; greater than 100 µM in the assay on OVCAR-8 ovarian; 47.1 µM in the assay on RXF 393 renal; greater than 100 µM in the assay on SK-MEL-2 melanoma; greater than 100 µM in the assay on SK-MEL-28 melanoma; greater than 100 µM in the assay with SK-MEL-5 melanoma. For the same compound, the TGI in the assay on SN12C renal, in the assay with SNB-19 CNS, in the assay on SW-620 colon and in the assay on UO-31 renal was greater than 100 µM in each case.

`O=C1c2ccccc2NC(=O)C2C1C(c1ccccc1)CC2(O)c1ccccc1` (configuration not stated): the TGI in the assay with 786-0 renal is greater than 100 µM; in the assay with ACHN renal it was greater than 100 µM; with EKVX NSCLC, greater than 100 µM; with HCT-116 colon, 37.8 µM; in the assay on HOP-62 NSCLC, greater than 100 µM; in the assay on HS 578T breast it was 98.3 µM. Besides, the TGI in the assay with HT29 colon, with LOX IMVI melanoma, in the assay on MCF7 breast, with NCI-H23 lung, in the assay on OVCAR-8 ovarian and in the assay on RXF 393 renal was greater than 100 µM each time. The TGI in the assay with SK-MEL-2 melanoma, in the assay with SK-MEL-28 melanoma, with SK-MEL-5 melanoma, in the assay on SN12C renal, in the assay on SNB-19 CNS and with SW-620 colon was greater than 100 µM throughout.
